# Earlier results as cited in US9907754B2 (VECTURA LIMITED, priority 2013, dated 2018).
# Assays:
# [1] = henderson-hasselbalch (1908)
# [2] = EFSA; no indications of inhalation toxicity or intolerability
"water pick up, % of mass (humidity >70% RH) [%]",moisture pick up (relative humidity as high as 70%),SMILES,pKa of the sulphur-hydryl group [1],tolerable dose [2] [mg/kg/day]
10,less than 1%,OC[C@@H](O)[C@@H](O)[C@H](O)[C@H](O)CO [Mannitol],–,–
–,–,"NCCS(=O)(=O)O [Taurine, 2-aminoethanesulfonic acid]",1.49,> 1000
